Test results published in article PMC10744032, “Regioselective and Stereoselective Synthesis of Parthenolide Analogs by Acyl Nitroso-Ene Reaction and Their Biological Evaluation against Mycobacterium tuberculosis” (International Journal of Molecular Sciences, 2023).
Values after ≈ are worked out from the molar mass of the structure shown. Read-outs that look alike come from different tables or passages of the source.

Assays:
[1] = Kinetic solubility in PBS by LC-MS/MS; type: physicochemical; conditions: for solubility at 24 h: kinetic from dmso stock; for fold higher solubility in PBS compared to parthenolide: relative to parthenolide
Procedure: The kinetic solubility was determined using LC–MS/MS analysis in PBS at pH 7.4. Briefly, a 10 mM 100% DMSO solution of the compound was diluted 50-fold either in PBS at pH 7.4 (in triplicate) or in DMSO in polypropylene tubes (n = 3 for PBS and n = 6 for DMSO). The tubes were gently shaken for 24 h at 21 °C. Then, the three PBS tubes and three of the six DMSO tubes were centrifuged for 5 min at 4000 rpm and filtered over 0.45 μm filters (Millex-LH Millipore). Then, 40 μL of each solution was diluted in 160 μL of MeCN and 40 µL of Milli-Q water and transferred to matrix tubes for the LC–MS/MS analysis. The solubility was determined according to the following formula: Solubility (μM) = (AUC (filtered PBS)/AUC (not filtered DMSO)) × 200. The test was validated if (AUC (not filtered DMSO) − AUC (filtered DMSO))/AUC (not filtered DMSO) ≤ 10%.

[2] = tested on: M. tuberculosis H37Rv expressing GFP (H37Rv::pJKD6); assay: microbe, parasite or virus in culture; type: cell-based, Mycobacterium tuberculosis; conditions: Mycobacterium tuberculosis, H37RV, 168 h; read-out: MIC98 M. tuberculosis (GFP)
[3] = Cytotoxicity by live imaging (Hoechst 33342 / propidium iodide); type: cell-based; conditions: mouse
Procedure: The cytotoxicity of the compounds to BALB/3T3 cells was determined using live imaging following both Hoechst 33342 and propidium iodide staining. Briefly, BALB/3T3 cells were seeded in a 384-well plate and 24 h later, the compounds were added (0, 12.5, 25, 50, and 100 µM) to the culture medium, as well as Hoechst 33342 and propidium iodide (PI). Then, 24 h and 48 h after the compounds were added, live imaging was performed using an In Cell Analyzer 6000 (STP GE Healthcare, Glascow, UK). The cytotoxicity was defined based on the ratio of the population of dead or dying cells (propidium iodide staining) to the total cell population (Hoechst staining), as determined using Columbus software 2.9.1 (PerkinElmer Informatics, WA, USA). The compounds were tested in triplicate. Carfilzomib (500, 250, 140, and 60 nM) was used as the positive control in this assay.

M. tuberculosis H37Rv = assay: microbe, parasite or virus in culture; type: cell-based, Mycobacterium tuberculosis; conditions: Mycobacterium tuberculosis, H37RV, 168 h, 7 days incubation, resazurin readout, tested 300 to 2.3 µM, read-out: MIC90 M. tuberculosis (REMA)
[4] = tested on: Staphylococcus aureus (SH1000); assay: microbe, parasite or virus in culture; type: cell-based; conditions: Staphylococcus aureus; 5 h incubation, resazurin readout; tested 300 to 2.3 µM; read-out: MIC90 S. aureus (REMA)
[5] = aqueous buffer, kinetic solubility, PBS pH 7.4, 24 h at 21 °C, from 10 mM DMSO solution diluted 50-fold, read-out: Solubility
[6] = BALB/3T3 cells, 0, 12.5, 25, 50, 100 µM, imaging at 24 h and 48 h, read-out: Cytotoxicity Balb3T3 CC50

SMILES | solubility at 24 h ([1]; 21 °C, pH 7.4, aqueous buffer) [µM] | MIC [2] [µM] | CC50 [3] [µM] | MIC90 (M. tuberculosis H37Rv) [µM] | MIC90 [4] [µM] | fold higher solubility in PBS compared to parthenolide [1] [fold] | solubility at 24 h [1, 5] [µM] | CC50 [3, 6] [µM]
C=C1CC[C@H]2C(=C)C(=O)O[C@@H]2[C@@H]2O[C@]2(C)CC[C@H]1N(O)C(=O)Nc1ccc(C)cc1 [Compound 5, 1-hydroxy-1-[(1S,2S,4R,7R,11S)-4-methyl-8,12-dimethylene-13-oxo-3,14-dioxatricyclo[9.3.0.02,4]tetradecan-7-yl]-3-(p-tolyl)urea] | 186 (≈ 76.7 µg/mL) | 19 (≈ 7.84 µg/mL) | 12.5 | 19 to 38 (≈ 7.84 to 15.7 µg/mL) | > 300 |  |  | 
C=C1CC[C@H]2C(=C)C(=O)O[C@@H]2[C@@H]2O[C@]2(C)CC[C@H]1N(O)C(=O)OCCOC [Compound 21, 2-methoxyethyl-N-hydroxy-N-[(1S,2S,4R,7R,11S)-4-methyl-8,12-dimethylene-13-oxo-3,14-dioxatricyclo[9.3.0.02,4]tetradecan-7-yl]carbamate] | > 200 | 150 to 300 (≈ 57.2 to 114 µg/mL) | 100 | 150 (≈ 57.2 µg/mL) |  |  |  | 
C=C1CC[C@H]2C(=C)C(=O)O[C@@H]2[C@@H]2O[C@]2(C)CC/C1=N/O [Compound 23, (1S,2S,4R,7Z,11S)-7-hydroxyimino-4-methyl-8,12-dimethylene-3,14-dioxatricyclo[9.3.0.02,4] tetradecan-13-one] | 186 (≈ 51.6 µg/mL) |  |  |  | > 300 |  |  | 
C=C1CC[C@H]2C(=C)C(=O)O[C@@H]2[C@@H]2O[C@]2(C)CC[C@H]1N(O)C(=O)NCc1ccccc1 [Compound 6, 3-benzyl-1-hydroxy-1-[(1S,2S,4R,7R,11S)-4-methyl-8,12-dimethylene-13-oxo-3,14-dioxatricyclo [9.3.0.02,4]tetradecan-7-yl]urea] | 196 (≈ 80.8 µg/mL) | 19 to 38 (≈ 7.84 to 15.7 µg/mL) | > 25 | 38 to 75 (≈ 15.7 to 30.9 µg/mL) | > 300 |  |  | 
C=C1CC[C@H]2C(=C)C(=O)O[C@@H]2[C@@H]2O[C@]2(C)CC[C@H]1N(O)C(=O)Nc1ccccc1 [Compound 4, 1-hydroxy-1-[(1S,2S,4R,7R,11S)-4-methyl-8,12-dimethylene-13-oxo-3,14-dioxatricyclo[9.3.0.02,4]tetradecan-7-yl]-3-phenyl-urea] | 186 (≈ 74.1 µg/mL) | 9.4 to 19 (≈ 3.75 to 7.57 µg/mL) | 25 | 19 to 38 (≈ 7.57 to 15.1 µg/mL) | > 300 |  |  | 
C=C1CC[C@H]2C(=C)C(=O)O[C@@H]2[C@@H]2O[C@]2(C)CC[C@H]1N(O)C(=O)OCC(C)C [Compound 18, Isobutyl-N-hydroxy-N-[(1S,2S,4R,7R,11S)-4-methyl-8,12-dimethylene-13-oxo-3,14-dioxatricyclo[9.3.0.02,4]tetradecan-7-yl]carbamate] | 190 (≈ 72.1 µg/mL) | 19 (≈ 7.21 µg/mL) | 50 | 38 (≈ 14.4 µg/mL) |  |  |  | 
C=C1CC[C@H]2C(=C)C(=O)O[C@@H]2[C@@H]2O[C@]2(C)CC[C@H]1N(O)C(=O)Nc1ccc2c(c1)OCO2 [Compound 10, 3-(1,3-benzodioxol-5-yl)-1-hydroxy-1-[(1S,2S,4R,7R,11S)-4-methyl-8,12-dimethylene-13-oxo-3,14-dioxatricyclo[9.3.0.02,4]tetradecan-7-yl]urea] | 182 (≈ 80.5 µg/mL) | 19 (≈ 8.41 µg/mL) | 12.5 | 38 (≈ 16.8 µg/mL) |  |  |  | 
C=C1CC[C@H]2C(=C)C(=O)O[C@@H]2[C@@H]2O[C@]2(C)CC[C@H]1N(O)C(=O)Nc1ccc(F)cc1 [Compound 8, 3-(4-fluorophenyl)-1-hydroxy-1-[(1S,2S,4R,7R,11S)-4-methyl-8,12-dimethylene-13-oxo-3,14-dioxatricyclo[9.3.0.02,4]tetradecan-7-yl]urea] | 188 (≈ 78.3 µg/mL) | 19 (≈ 7.91 µg/mL) | > 25 | 19 (≈ 7.91 µg/mL) |  | 1.3 |  | 
C/C1=C\CC[C@@]2(C)O[C@H]2[C@H]2OC(=O)C(C)[C@@H]2CC1 (stereo partly drawn) [Compound 26, (1S,2S,4R,7E,11S)-4,8,12-trimethyl-3,14-dioxatricyclo[9.3.0.02,4]tetradec-7-en-13-one] |  | 300 (≈ 75.1 µg/mL) |  | 300 (≈ 75.1 µg/mL) |  |  |  | 
CO[C@H]1/C=C/O[C@@]2(C)Oc3c(C)c(O)c4c(O)c(c(/C=N/N5CCN(C)CC5)c(O)c4c3C2=O)NC(=O)/C(C)=C\C=C\[C@H](C)[C@H](O)[C@@H](C)[C@@H](O)[C@@H](C)[C@H](OC(C)=O)[C@@H]1C [Rifampicin, reference compound] |  | < 2.3 |  | < 2.3 | < 2.3 |  |  | 
C=C1CC[C@H]2C(=C)C(=O)O[C@@H]2[C@@H]2O[C@]2(C)CC[C@H]1N(O)C(=O)OCC [Compound 19, Ethyl-N-hydroxy-N-[(1S,2S,4R,7R,11S)-4-methyl-8,12-dimethylene-13-oxo-3,14-dioxatricyclo[9.3.0.02,4]tetradecan-7-yl]carbamate] | 198 (≈ 69.6 µg/mL) | 75 (≈ 26.4 µg/mL) | > 12.5 | 75 (≈ 26.4 µg/mL) |  |  |  | 
C=C1CC[C@H]2C(=C)C(=O)O[C@@H]2[C@@H]2O[C@]2(C)CC[C@H]1N(O)C(=O)Nc1ccc(OC)cc1 [Compound 7, 1-hydroxy-3-(4-methoxyphenyl)-1-[(1S,2S,4R,7R,11S)-4-methyl-8,12-dimethylene-13-oxo-3,14-dioxatricyclo[9.3.0.02,4]tetradecan-7-yl]urea] | 184 (≈ 78.8 µg/mL) | 19 (≈ 8.14 µg/mL) | 25 | 19 (≈ 8.14 µg/mL) |  |  |  | 
C=C1CC[C@H]2C(=C)C(=O)O[C@@H]2[C@@H]2O[C@]2(C)CC[C@H]1N(O)C(=O)OC1CCOCC1 [Compound 22, Tetrahydropyran-4-yl-N-hydroxy-N-[(1S,2S,4R,7R,11S)-4-methyl-8,12-dimethylene-13-oxo-3,14-dioxatricyclo[9.3.0.02,4]tetradecan-7-yl]carbamate] | 193 (≈ 78.6 µg/mL) | 38 (≈ 15.5 µg/mL) | > 50 | 75 (≈ 30.6 µg/mL) |  |  |  | 
C=C1CC[C@H]2C(=C)C(=O)O[C@@H]2[C@@H]2O[C@]2(C)CC[C@H]1N(O)C(=O)Oc1ccccc1 [Compound 17, Phenyl-N-hydroxy-N-[(1S,2S,4R,7R,11S)-4-methyl-8,12-dimethylene-13-oxo-3,14-dioxatricyclo[9.3.0.02,4]tetradecan-7-yl]carbamate] |  | 38 (≈ 15.2 µg/mL) |  | 38 (≈ 15.2 µg/mL) |  |  | 189 (≈ 75.5 µg/mL) | 12.5
C=C1CC[C@H]2C(=C)C(=O)O[C@@H]2[C@@H]2O[C@]2(C)CC[C@H]1N(O)C(=O)NCCCOCC [Compound 11, 3-(3-ethoxypropyl)-1-hydroxy-1-[(1S,2S,4R,7R,11S)-4-methyl-8,12-dimethylene-13-oxo-3,14-dioxatricyclo[9.3.0.02,4]tetradecan-7-yl]urea] | 197 (≈ 80.5 µg/mL) | 150 (≈ 61.3 µg/mL) | > 100 | 150 (≈ 61.3 µg/mL) |  |  |  | 
C=C1CC[C@H]2C(=C)C(=O)O[C@@H]2[C@@H]2O[C@]2(C)CC[C@H]1N(O)C(=O)Oc1ccc2c(c1)OCO2 [Compound 20, 1,3-benzodioxol-5-yl-N-hydroxy-N-[(1S,2S,4R,7R,11S)-4-methyl-8,12-dimethylene-13-oxo-3,14-dioxatricyclo[9.3.0.02,4]tetradecan-7-yl]carbamate] |  | 37.5 to 75 (≈ 16.6 to 33.3 µg/mL) |  | 75 (≈ 33.3 µg/mL) |  |  | 182 (≈ 80.7 µg/mL) | > 12.5
C=C1CC[C@H]2C(=C)C(=O)O[C@@H]2[C@@H]2O[C@]2(C)CC[C@H]1N(O)C(N)=O [Compound 9, 1-hydroxy-1-[(1S,2S,4R,7R,11S)-4-methyl-8,12-dimethylene-13-oxo-3,14-dioxatricyclo[9.3.0.02,4]tetradecan-7-yl]urea] | > 200 | 75 to 150 (≈ 24.2 to 48.4 µg/mL) | > 100 | ~150 (≈ 48.4 µg/mL) |  | 1.5 |  | 
